# Reference: patent publication US20060287378A1, “Novel pyrroles and imidazoles” (priority 2003, published 2006)
# Where two headings read alike, the source gives them in different places.
# What was measured:
# [1] = tested on: Sterol Biosynthesis in L6 Rat Myoblast; test: Sterol biosynthesis in L6 rat myoblast (14C acetic acid into cholesterol); format: cell-based; details: 3 hours pre-incubation, 3 hours 14C acetic acid labeling
# Description: C.) Protocol for Sterol Biosynthesis in L6 Rat Myoblast:
# (§1) Cell culture, compounds treatment and cell labeling:
# L6 rat myoblast purchased from ATCC (CRL-1458) were grown in T-150 vented culture flasks and seeded on 12-well culture plates at a density of 60,000 cells per well. The cells were grown in DMEM, (Dulbecco's Modified Eagle Medium) (Gibco, #10567-014) containing 10% heat inactivated FBS (Fetal Bovine Serum) (Gibco # 10082-139) for 72 hours until reaching confluence. The cells were pre-incubated in media with compound and 0.2% DMSO (dimethyl sulfoxide) for 3 hours and then labeled by incubating in medium containing compound, 0.2% DMSO and 1 □]Ci/per mL of ^14C acetic acid for an additional 3 hours. After labeling, the cells were washed once with 1×PBS (Gibco #14190-144) then lysed overnight at 4° C. in buffer containing 10% KOH and 78%(vol.) ethanol. Cholesterol extraction and data analysis:
# Lipid ester bonds were hydrolyzed by saponification of the lysates at 60° C. for 2 hours. Sterols (including cholesterol) were extracted from saponified lysates by combining with 3 volumes of hexane and mixing by pipette 6 times. The upper organic phase solution was collected and combined with an equal volume of 1 N KOH in 50% methanol and mixed by pipette 6 times. The upper organic phase was collected in a scintilant-coated plate (Wallac #1450-501) and hexanes removed by evaporation at room temperature for 3 hours. The amount of ^14C cholesterol was quantified by scintillation counting in a Trilux 1450 plate reader (Wallac). The IC50 values were calculated from % inhibitions relative to negative controls vs. compound concentration on Microsoft excel 2000 data analysis wizard using a sigmoid inhibition curve model with formula: y=Bmax (1−(x^n/K^n+x^n))+y2
# Where K is the IC50 for the inhibition curve, X is inhibitor concentration, Y is the response being inhibited and Bmax+Y2 is the limiting response as X approaches zero.
# [2] = target: T1, HMGCoA (3-Hydroxy-3-methylglutaryl CoA) Reductase (Rattus norvegicus, UniProt P51639); test: HMGCoA reductase assay with rat liver microsomes (14C-HMGCoA); format: biochemical; details: in vitro assay, 45 min at 37° C.
# T1 construct: Male Charles River Sprague-Dawley rats were fed with 2.5% cholestyramine in rat chow diets for 5 days before sacrificing; from tissue; host or cells: liver microsomes of male Sprague-Dawley rats fed cholestyramine
# T1 sequence (P51639 1-887): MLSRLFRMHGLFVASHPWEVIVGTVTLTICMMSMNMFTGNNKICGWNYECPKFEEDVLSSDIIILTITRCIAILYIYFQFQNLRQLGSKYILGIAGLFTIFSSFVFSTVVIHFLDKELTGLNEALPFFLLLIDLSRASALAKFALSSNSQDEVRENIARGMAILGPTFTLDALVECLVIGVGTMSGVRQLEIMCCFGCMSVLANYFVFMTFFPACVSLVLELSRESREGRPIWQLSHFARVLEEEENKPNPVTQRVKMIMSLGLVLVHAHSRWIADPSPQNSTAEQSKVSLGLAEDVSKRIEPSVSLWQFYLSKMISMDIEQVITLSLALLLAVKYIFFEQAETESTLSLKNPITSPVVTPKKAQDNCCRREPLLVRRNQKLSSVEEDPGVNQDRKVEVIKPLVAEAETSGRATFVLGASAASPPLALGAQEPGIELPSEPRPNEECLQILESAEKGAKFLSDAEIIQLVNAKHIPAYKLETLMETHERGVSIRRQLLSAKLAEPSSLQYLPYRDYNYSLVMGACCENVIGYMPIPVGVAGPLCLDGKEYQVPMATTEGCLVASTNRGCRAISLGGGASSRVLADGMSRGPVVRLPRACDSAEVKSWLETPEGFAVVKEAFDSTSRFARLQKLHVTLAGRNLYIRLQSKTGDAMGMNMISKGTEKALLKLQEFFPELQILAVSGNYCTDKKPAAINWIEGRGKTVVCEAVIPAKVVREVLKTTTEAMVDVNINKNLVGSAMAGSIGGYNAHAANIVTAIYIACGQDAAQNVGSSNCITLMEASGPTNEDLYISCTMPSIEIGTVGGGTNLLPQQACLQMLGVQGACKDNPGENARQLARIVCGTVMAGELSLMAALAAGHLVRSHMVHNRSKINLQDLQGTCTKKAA
# Description: Rat Liver Microsomal Isolation Procedure:
# Male Charles River Sprague-Dawley rats were fed with 2.5% cholestyramine in rat chow diets for 5 days before sacrificing. Livers were minced and homogenized in a sucrose homogenizing solution in an ice bath 10 times. Homogenates were diluted into a final volume of 200 mL, and centrifuged 15 min. with a Sorvall Centrifuge at 5° C., 10,000 rpm (12,000×G). The upper fat layer was removed and the supernatant decanted into fresh tubes. This step was repeated one more time before transferring the supernatant into ultracentrifuge tubes and centrifuged at 36,000 rpm (105,000×G) for an hour at 5° C. The resulting supernatant was discarded and the pellet was added to total of 15 mL 0.2 M KH2PO4. Pellets were homogenized gently by hand about 10 times. Samples were pooled and diluted into total of 60 mL buffer. The protein concentration of the homogenate was determined by the […] using a BCA (Bicinchoninic acid), kit from Pierce Chemical Company. 1 mL aliquots of microsomes were kept frozen in liquid nitrogen.
# HMGCoA (3-Hydroxy-3-methylglutaryl CoA) Reductase Assay:
# [3-^14C]-HMGCoA (57.0 mCi/mmol) was purchased from Amersham Biosciences, UK. HMGCoA, mevalonolactone, P-NADPH (P-Nicotinamide Adenine Dinucleotide Phosphate, Reduced form) were purchased from Sigma Chemical Co. AG 1-8×resin was purchased from Bio-Rad Laboratory. • 1. One μL of dimethyl sulfoxide (DMSO) or 1 μL of DMSO containing a test compound at a concentration sufficient to give a final assay concentration of between 0.1 nM to 1 mM was placed into each well of a Corning 96 well plate. A Volume of 34 µL of buffer (100 mM NaH2PO4, 10 mM Imidazole and 10 mM EDTA), (Ethylenediaminetetra acetic acid) containing with 50 µg/mL rat liver microsomes was added into each well. After incubation for 30 min. on ice, 15 µL of ^14C-HMGCoA (0.024 μCi) with 15 mM NADPH, 25 mM DTT, (Dithiothreitol) was added and incubated at 37° C. for an additional 45 min.
# The reaction was terminated by the addition of 10 μL of HCl followed by 5 μL of mevalonolactone. Plates were incubated at room temperature overnight to allow lactonization of mevalonate to mevalonolactone. The incubated samples were applied to columns containing 300 μL of AG1-X8 anion exchange resin in a Corning filter plate.
# The eluates were collected into Corning 96 well capture plates. Scintillation cocktail (Ultima-Flo-M) was added into each well and plates counted on a Trilux Microbeta Counter. The IC50 values were calculated with GraphPad software (Prism). Procedure: • 2. Add 1 μL DMSO or compounds into the wells according to the protocol • 3. Add 35 μL incubation buffer with the rat microsomes into each well. Incubate 30 min. at 4° C. • 4. Add 15 μL ^14C-HMGCoA. Incubate 45 min. at 37° C. • 5. Add 10 μL HCl stop reagent • 6. Add 5 μL mevelonolactone. Incubate overnight at room temperature • 7. Apply the containing into the AG 1-X8 anion exchange resin in Corning filter plate • 8. Collect the eluate into Corning capture plate • 9. Add scintillation cocktail Ultima-Flo-M • 10. Count on a Trilux Microbeta Counter μ • 11. Calculate IC50 values
# [3] = tested on: Sterol Biosynthesis in Rat Hepatocytes; test: Sterol biosynthesis in rat hepatocytes (14C acetic acid into cholesterol); format: cell-based; details: Hepatocyte
# Description: Protocol for Sterol Biosynthesis in Rat Hepatocytes:
# as §1
# Frozen rat hepatocytes purchased from XenoTech (cat# N400572) were seeded on 6-well collagen I coated plates at a density of 10^5 cells/per well. The cells were grown in DMEM, (Dulbecco's Modified Eagle Medium) (Gibco, #11054-020) containing 10% FBS (Fetal Bovine Serum) and 10 mM HEPES, (N-2-hydroxyethyl-piperazine-N^1-2-ethane sulfonic acid) (Gibco # 15630-080) for 24 hrs. The cells were pre-incubated with compounds for 4 hrs and then labeled by incubating in medium containing 1 uCVper mL of ^14C acetic acid for an additional 4 hrs. After labeling, the cells were washed twice with 5 mM MOPS, (3-[N-morpholino] propane sulfonic acid) solution containing 150 mM NaCl and 1 mM EDTA and collected in the lysis buffer containing 10% KOH and 80% (vol.) ethanol. Cholesterol extraction and data analysis:
# In order to separate labeled cholesterol from labeled non-cholesterol lipids, the cells lysates were subject to saponification at 60° C. for 2 hrs. The lysates were then combined with 0.5 volume of H2O and 2 volumes of hexane, followed by 30 minutes of vigorous shaking. After the separation of two phases, the upper-phase solution was collected and combined with 5 volumes of scintillation cocktail. The amount of ^14C cholesterol was quantified by liquid scintillation counting. The IC50 values were calculated with GraphPad software (Prism 3.03).
melting point,Structure (SMILES),IC50 [1],IC50 [2],IC50 ([3]; Rattus norvegicus),"IC50 ([3]; cell assay, rat hepatocytes, 4 hrs pre-incubation, 4 hrs 14C acetic acid labeling, read-out: IC50)"
–,CC(C)c1c(C(=O)N2CCN(c3ccc(F)cc3F)CC2)nc(-c2ccc(F)cc2)n1CC[C@@H](O)C[C@@H](O)CC(=O)O [Example 69],159 nM,2.2 nM,0.18 nM,–
–,CC(C)c1c(C(=O)NCc2ccccc2)nc(-c2ccc(F)cc2)n1CC[C@@H](O)C[C@@H](O)CC(=O)O [Example 4],3070 nM,7.9 nM,0.42 nM,–
–,"O=C1C[C@H](O)C[C@@H](CCn2c(-c3ccc(F)cc3)nc(C(=O)NCc3ccccc3)c2C2CC2)O1 [Example 103, 5-Cyclopropyl-2-(4-fluoro-phenyl)-1-[2-((2R,4R)-4-hydroxy-6-oxo-tetrahydro-pyran-2-yl)-ethyl]-1H-imidazole-4-carboxylic acid benzylamide]",–,50.4 nM,–,0.088 nM
–,"COc1ccc(CNC(=O)c2nc(-c3ccc(F)cc3)n(CC[C@@H]3C[C@@H](O)CC(=O)O3)c2C2CC2)cc1 [Example 104, 5-Cyclopropyl-2-(4-fluoro-phenyl)-1-[2-((2R,4R)-4-hydroxy-6-oxo-tetrahydro-pyran-2-yl)-ethyl]-1H-imidazole-4-carboxylic acid 4-methoxybenzylamide]",–,75.8 nM,–,–
–,"O=C(O)C[C@H](O)C[C@H](O)CCn1c(-c2ccc(F)cc2)nc(C(=O)NCc2ccccc2)c1C1CC1 [Example 110, Sodium: (3R,5R)-7-[4-Benzylcarbamoyl-5-cyclopropyl-2-(4-fluoro-phenyl)-imidazol-1-yl]-3,5-dihydroxy-heptanoate]",632 nM,1.38 nM,0.218 nM,–
130 to 134 °C (dec.),"CC(C)c1c(S(=O)(=O)Nc2ccccc2)c(-c2ccc(F)cc2)c(-c2ccc(F)cc2)n1CC[C@@H](O)C[C@@H](O)CC(=O)[O-].[Na+] [Example 1P, (3R,5R)-7-[2,3-bis-(4-fluoro-phenyl)-5-isopropyl-4-phenylsulfamoyl-pyrrol-1-yl]-3,5-dihydroxy-heptanoic acid monosodium salt]",–,–,–,–
–,CN(Cc1ccccc1)C(=O)c1nc(-c2ccc(F)cc2)n(CC[C@@H](O)C[C@@H](O)CC(=O)O)c1C1CC1 [Example 112],73500 nM,8.39 nM,1.15 nM,–
> 250 °C,CC(C)c1c(S(=O)(=O)NCc2ccc(C(=O)[O-])cc2)c(-c2ccc(F)cc2)c(-c2ccc(F)cc2)n1CC[C@@H](O)C[C@@H](O)CC(=O)[O-].[Na+].[Na+] [Example 43P],–,–,–,–
–,Cc1cc(CNC(=O)c2nc(-c3ccc(F)cc3)n(CC[C@@H](O)C[C@@H](O)CC(=O)O)c2C(C)C)no1 [Example 62],703 nM,7.2 nM,0.58 nM,–
–,COc1ccc(CNC(=O)c2nc(-c3ccc(F)cc3)n(CC[C@@H](O)C[C@@H](O)CC(=O)O)c2C2CC2)cc1 [Example 111],6400 nM,1.17 nM,0.146 nM,–
86 to 90 °C,"CC(C)c1c(NC(=O)OCc2ccccc2)nc(-c2ccc(F)cc2)n1CC[C@@H](O)C[C@@H](O)CC(=O)[O-].[Na+] [Example 137, Sodium: (3R,5R)-7-[4-benzyloxycarbonylamino-2-(4-fluoro-phenyl)-5-isopropyl-imidazol-1-yl]-3,5-dihydroxy-heptanoate sodium salt]",–,–,–,–
